Laboratory results published in ChEMBL document CHEMBL1130729, “Synthesis and transporter binding properties of (R)-2 beta, 3 beta- and (R)-2 alpha, 3 alpha-diaryltropanes” (Bioorg Med Chem Lett, 1998).

Assays:
[1] = target: Sodium-dependent dopamine transporter (Rattus norvegicus, UniProt P23977); test: Inhibitory activity against radioligand [3H]WIN-35428 binding at the dopamine transporter
[2] = target: Norepinephrine transporter (Rattus norvegicus, UniProt Q9WTR4); test: Inhibitory activity against radioligand [3H]nisoxetine binding at the norepinephrine transporter
[3] = target: Sodium-dependent serotonin transporter (Rattus norvegicus, UniProt P31652); test: Inhibitory activity against radioligand [3H]paroxetine binding at the serotonin transporter
Chain of Sodium-dependent serotonin transporter (P31652 whole entry): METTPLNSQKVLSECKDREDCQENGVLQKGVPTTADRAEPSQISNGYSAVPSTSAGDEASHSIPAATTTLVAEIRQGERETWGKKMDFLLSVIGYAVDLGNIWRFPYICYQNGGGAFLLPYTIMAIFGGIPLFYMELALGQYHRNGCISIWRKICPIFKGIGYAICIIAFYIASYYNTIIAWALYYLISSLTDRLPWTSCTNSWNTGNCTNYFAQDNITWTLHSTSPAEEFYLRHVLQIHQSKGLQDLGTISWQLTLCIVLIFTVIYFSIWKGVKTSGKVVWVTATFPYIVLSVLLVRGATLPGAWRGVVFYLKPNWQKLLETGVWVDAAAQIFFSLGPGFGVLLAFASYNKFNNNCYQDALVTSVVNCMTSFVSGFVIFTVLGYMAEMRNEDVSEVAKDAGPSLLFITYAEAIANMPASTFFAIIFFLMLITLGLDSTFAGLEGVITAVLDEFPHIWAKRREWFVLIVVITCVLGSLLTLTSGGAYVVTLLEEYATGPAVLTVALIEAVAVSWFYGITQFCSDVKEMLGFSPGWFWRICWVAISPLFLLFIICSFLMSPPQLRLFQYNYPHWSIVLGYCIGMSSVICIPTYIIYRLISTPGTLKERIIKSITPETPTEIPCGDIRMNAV

Chain of Sodium-dependent dopamine transporter (P23977 whole entry): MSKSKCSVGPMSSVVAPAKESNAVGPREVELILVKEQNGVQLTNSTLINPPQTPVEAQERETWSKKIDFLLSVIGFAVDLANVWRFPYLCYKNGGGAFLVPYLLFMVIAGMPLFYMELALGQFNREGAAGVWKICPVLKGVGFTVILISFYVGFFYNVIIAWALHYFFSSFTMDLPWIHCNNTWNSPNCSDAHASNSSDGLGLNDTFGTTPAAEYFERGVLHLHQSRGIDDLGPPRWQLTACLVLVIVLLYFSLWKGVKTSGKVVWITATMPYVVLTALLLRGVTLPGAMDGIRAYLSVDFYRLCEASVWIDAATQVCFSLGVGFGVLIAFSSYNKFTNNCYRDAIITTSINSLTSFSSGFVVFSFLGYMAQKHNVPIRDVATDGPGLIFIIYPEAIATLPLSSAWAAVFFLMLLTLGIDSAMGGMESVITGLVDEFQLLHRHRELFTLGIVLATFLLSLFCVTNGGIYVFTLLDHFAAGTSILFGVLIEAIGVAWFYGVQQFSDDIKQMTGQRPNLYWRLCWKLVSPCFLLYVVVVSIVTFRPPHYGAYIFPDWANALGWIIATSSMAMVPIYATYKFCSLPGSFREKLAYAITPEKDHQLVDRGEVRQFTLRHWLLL
Chain of Norepinephrine transporter (Q9WTR4 whole entry): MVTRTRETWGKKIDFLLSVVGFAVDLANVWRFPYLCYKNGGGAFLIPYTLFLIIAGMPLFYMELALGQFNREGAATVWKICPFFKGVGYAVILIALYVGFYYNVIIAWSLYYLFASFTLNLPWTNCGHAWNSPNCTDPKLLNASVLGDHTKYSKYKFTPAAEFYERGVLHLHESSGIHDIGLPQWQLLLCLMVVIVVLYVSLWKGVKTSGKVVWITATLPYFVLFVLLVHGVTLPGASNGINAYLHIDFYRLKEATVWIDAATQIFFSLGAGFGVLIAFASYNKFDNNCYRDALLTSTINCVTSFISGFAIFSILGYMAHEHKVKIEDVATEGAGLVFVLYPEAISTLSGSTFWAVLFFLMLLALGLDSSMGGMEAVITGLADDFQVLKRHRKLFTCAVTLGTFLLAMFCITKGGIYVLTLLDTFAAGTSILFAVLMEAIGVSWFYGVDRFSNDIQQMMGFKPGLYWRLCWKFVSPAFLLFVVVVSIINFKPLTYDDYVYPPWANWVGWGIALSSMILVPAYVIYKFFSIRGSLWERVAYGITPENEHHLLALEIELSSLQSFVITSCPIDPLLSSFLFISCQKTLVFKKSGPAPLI

SMILES	IC50 [1]	IC50 [2]	IC50 [3]
CN1[C@@H]2CC[C@H]1C(c1ccccc1)C(c1ccccc1)C2 (mixture of isomers; form 1)	28 nM	2670 nM	34700 nM
CN1[C@@H]2CC[C@H]1C(c1ccccc1)C(c1ccccc1)C2 (mixture of isomers; form 2)	–	2770 nM	186000 nM
CN1C2CC[C@@H]1C[C@@H](c1ccccc1)[C@@H]2c1ccccc1 (single isomer, unassigned; form 1)	12.6 nM	917 nM	21100 nM
CN1C2CC[C@@H]1C[C@@H](c1ccccc1)[C@@H]2c1ccccc1 (single isomer, unassigned; form 2)	690 nM	1040 nM	41300 nM
Cc1ccc(C2C[C@H]3CCC(C2c2ccccc2)N3C)cc1 (stereo in doubt; (R)-3b)	1.96 nM	479 nM	11000 nM
Cc1ccc(C2C[C@H]3CCC(C2c2ccccc2)N3C)cc1 (stereo in doubt; (R)-4b)	429 nM	4850 nM	15800 nM
